Test results reported in patent publication US10517889B2, “Modulators of SMAD7 expression” (Ionis Pharmaceuticals, Inc., priority 2017, dated 2019).
Strand notation (5' to 3'): a small letter for the sugar, then the base; units joined by * are phosphorothioate-linked, units joined directly phosphodiester-linked; [ ] holds rarer units or linkages, { } end groups; capitals alone tell only the bases. k = constrained ethyl (cEt); [5mC] = 5-methylcytosine; d = 2'-deoxy (DNA)

Tested on: human SMAD7 mRNA
Assay: Antisense inhibition of human SMAD7 mRNA expression in Hep3B cells by 3-10-3 cEt gapmers, 10,000 nM, electroporation (Example 2)
Format: cell-based
Settings: approximately 24 hours
How it was run: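 qRT-PCR (RTS5062) of SMAD7 mRNA, normalised to RIBOGREEN total RNA, gave percent inhibition relative to untreated controls. Hep3B cells at 20,000 per well received 10,000 nM oligonucleotide by electroporation, with ~24 h treatment.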

[1] = Hep3B cells, electroporation with 10,000 nM antisense oligonucleotide, SMAD7 mRNA by RT-PCR (RTS5062), relative to untreated control cells
[2] = Hep3B cells, electroporation with 10,000 nM antisense oligonucleotide, primer probe set RTS5062, relative to untreated control cells
[3] = Hep3B cells, 10,000 nM antisense oligonucleotide, electroporation, RT-PCR primer probe set RTS5062, relative to untreated control cells

Row | Substance | % Inhibition [1] | % inhibition of SMAD7 mRNA expression [2] | other results
1 | 798772 (k[5mC]*kT*kT*d[5mC]*d[5mC]*dG*dA*dG*dG*dA*dA*dT*dG*k[5mC]*k[5mC]*kT; antisense) [compound 798772] | 48% | – | –
2 | 798773 (kT*kG*kA*d[5mC]*dT*dT*d[5mC]*d[5mC]*dG*dA*dG*dG*dA*kA*kT*kG; antisense) [compound 798773] | – | 40% | –
3 | 798774 (kT*kT*kG*dA*d[5mC]*dT*dT*d[5mC]*d[5mC]*dG*dA*dG*dG*kA*kA*kT; antisense) [compound 798774] | – | 12% | –
4 | 798775 (k[5mC]*k[5mC]*kT*d[5mC]*dT*dT*dG*dA*d[5mC]*dT*dT*d[5mC]*d[5mC]*kG*kA*kG; antisense) [compound 798775] | – | 0% | –
5 | 798776 (kA*k[5mC]*kA*d[5mC]*dA*dG*d[5mC]*d[5mC]*dT*d[5mC]*dT*dT*dG*kA*k[5mC]*kT; antisense) [compound 798776] | – | 34% | –
6 | 798777 (kG*k[5mC]*kA*dA*d[5mC]*dA*d[5mC]*dA*dG*d[5mC]*d[5mC]*dT*d[5mC]*kT*kT*kG; antisense) [compound 798777] | – | 20% | –
7 | 798778 (k[5mC]*kA*k[5mC]*dA*dG*d[5mC]*dA*dA*d[5mC]*dA*d[5mC]*dA*dG*k[5mC]*k[5mC]*kT; antisense) [compound 798778] | – | 64% | –
8 | 798779 (kA*kT*kT*d[5mC]*dA*d[5mC]*dA*dG*d[5mC]*dA*dA*d[5mC]*dA*k[5mC]*kA*kG; antisense) [compound 798779] | – | 31% | –
9 | 798780 (kA*kA*kG*dA*dT*dT*d[5mC]*dA*d[5mC]*dA*dG*d[5mC]*dA*kA*k[5mC]*kA; antisense) [compound 798780] | – | 58% | –
10 | 798782 (kT*kG*k[5mC]*dA*dG*d[5mC]*dA*d[5mC]*dA*d[5mC]*d[5mC]*dA*dG*k[5mC]*kT*k[5mC]; antisense) [compound 798782] | 51% | – | –
11 | 798783 (k[5mC]*kG*kG*d[5mC]*dT*dA*dA*dG*dG*dT*dG*dA*dT*kG*kG*kG; antisense) [compound 798783] | 45% | – | –
12 | 798784 (kG*kA*kG*dT*d[5mC]*dG*dG*d[5mC]*dT*dA*dA*dG*dG*kT*kG*kA; antisense) [compound 798784] | 35% | – | –
13 | 798785 (k[5mC]*kT*kA*dG*dT*dT*d[5mC]*dG*d[5mC]*dA*dG*dA*dG*kT*k[5mC]*kG; antisense) [compound 798785] | – | 0% | –
14 | 798786 (kA*k[5mC]*kT*d[5mC]*dT*dA*dG*dT*dT*d[5mC]*dG*d[5mC]*dA*kG*kA*kG; antisense) [compound 798786] | – | 11% | –
15 | 798787 (kG*kA*kG*dA*d[5mC]*dT*d[5mC]*dT*dA*dG*dT*dT*d[5mC]*kG*k[5mC]*kA; antisense) [compound 798787] | – | 20% | –
16 | 798788 (kT*k[5mC]*kT*dG*dG*dA*dG*dT*dA*dA*dG*dG*dA*kG*kG*kG; antisense) [compound 798788] | – | 31% | –
17 | 798789 (kG*kT*kA*dT*d[5mC]*dT*dG*dG*dA*dG*dT*dA*dA*kG*kG*kA; antisense) [compound 798789] | – | 44% | –
18 | 798790 (k[5mC]*kG*kG*dG*dT*dA*dT*d[5mC]*dT*dG*dG*dA*dG*kT*kA*kA; antisense) [compound 798790] | – | 49% | –
19 | 798791 (k[5mC]*kA*kT*d[5mC]*dG*dG*dG*dT*dA*dT*d[5mC]*dT*dG*kG*kA*kG; antisense) [compound 798791] | – | 25% | –
20 | 798806 (kT*kG*kA*dA*dA*dG*d[5mC]*d[5mC]*d[5mC]*d[5mC]*d[5mC]*d[5mC]*dA*kG*kG*kG; antisense) [compound 798806] | – | – | % inhibition of SMAD7 mRNA expression (Hep3B cells, electroporation, 10,000 nM antisense oligonucleotide, RTS5062, relative to untreated control cells): 50%
21 | 798807 (kA*kT*k[5mC]*dT*dG*dA*dA*dA*dG*d[5mC]*d[5mC]*d[5mC]*d[5mC]*k[5mC]*k[5mC]*kA; antisense) [compound 798807] | – | 64% | –
22 | 798808 (kG*kG*kA*dA*dT*d[5mC]*dT*dG*dA*dA*dA*dG*d[5mC]*k[5mC]*k[5mC]*k[5mC]; antisense) [compound 798808] | – | 44% | –
23 | 798809 (kT*kT*kG*dG*dG*dA*dA*dT*d[5mC]*dT*dG*dA*dA*kA*kG*k[5mC]; antisense) [compound 798809] | – | 2% | –
24 | 798810 (kA*kA*kG*dT*dT*dG*dG*dG*dA*dA*dT*d[5mC]*dT*kG*kA*kA; antisense) [compound 798810] | – | 0% | –
25 | 798811 (k[5mC]*kA*kG*dA*dA*dG*dA*dA*dG*dT*dT*dG*dG*kG*kA*kA; antisense) [compound 798811] | 1% | – | –
26 | 798812 (k[5mC]*kT*k[5mC]*d[5mC]*dA*dG*dA*dA*dG*dA*dA*dG*dT*kT*kG*kG; antisense) [compound 798812] | 0% | – | –

Row | Substance | % Inhibition [1] | % inhibition of SMAD7 mRNA expression [2] | other results
27 | 798813 (k[5mC]*k[5mC]*kG*dA*dT*d[5mC]*d[5mC]*d[5mC]*d[5mC]*dA*dG*dG*d[5mC]*kT*k[5mC]*k[5mC]; antisense) [compound 798813] | 23% | – | –
28 | 798814 (kA*k[5mC]*k[5mC]*dA*dG*dT*dG*dT*dG*dA*d[5mC]*d[5mC]*dG*kA*kT*k[5mC]; antisense) [compound 798814] | 25% | – | –
29 | 798815 (k[5mC]*kG*k[5mC]*dA*d[5mC]*d[5mC]*dA*dG*dT*dG*dT*dG*dA*k[5mC]*k[5mC]*kG; antisense) [compound 798815] | 45% | – | –
30 | 798816 (k[5mC]*k[5mC]*kA*d[5mC]*dG*d[5mC]*dA*d[5mC]*d[5mC]*dA*dG*dT*dG*kT*kG*kA; antisense) [compound 798816] | 24% | – | –
31 | 798817 (kG*k[5mC]*k[5mC]*dA*d[5mC]*d[5mC]*dA*d[5mC]*dG*d[5mC]*dA*d[5mC]*d[5mC]*kA*kG*kT; antisense) [compound 798817] | 26% | – | –
32 | 798818 (kT*kA*kT*dG*d[5mC]*d[5mC]*dA*d[5mC]*d[5mC]*dA*d[5mC]*dG*d[5mC]*kA*k[5mC]*k[5mC]; antisense) [compound 798818] | 63% | – | –
33 | 798819 (kT*k[5mC]*k[5mC]*d[5mC]*dA*dG*dT*dA*dT*dG*d[5mC]*d[5mC]*dA*k[5mC]*k[5mC]*kA; antisense) [compound 798819] | – | – | % Inhibition [3]: 0%
34 | 798820 (kT*k[5mC]*kT*d[5mC]*d[5mC]*dT*d[5mC]*d[5mC]*d[5mC]*dA*dG*dT*dA*kT*kG*k[5mC]; antisense) [compound 798820] | – | – | % Inhibition [3]: 24%
35 | 798821 (kA*kG*k[5mC]*d[5mC]*dT*d[5mC]*d[5mC]*d[5mC]*d[5mC]*dA*d[5mC]*dT*d[5mC]*kT*k[5mC]*kG; antisense) [compound 798821] | – | – | % Inhibition [3]: 32%
36 | 798822 (kG*kT*kA*dG*dA*dG*d[5mC]*d[5mC]*dT*d[5mC]*d[5mC]*d[5mC]*d[5mC]*kA*k[5mC]*kT; antisense) [compound 798822] | – | – | % Inhibition [3]: 56%
37 | 798825 (k[5mC]*kT*kG*dG*dA*d[5mC]*dA*d[5mC]*dA*dG*dT*dA*dG*kA*kG*k[5mC]; antisense) [compound 798825] | – | – | % Inhibition [3]: 24%
38 | 798826 (k[5mC]*kT*k[5mC]*d[5mC]*dT*dG*dG*dA*d[5mC]*dA*d[5mC]*dA*dG*kT*kA*kG; antisense) [compound 798826] | – | – | % Inhibition [3]: 14%
39 | 798827 (kA*kG*kA*dG*dA*dG*dG*dG*d[5mC]*dT*d[5mC]*d[5mC]*dT*kG*kG*kA; antisense) [compound 798827] | – | – | % Inhibition [3]: 21%
40 | 798828 (kA*kT*k[5mC]*d[5mC]*dA*dG*dA*dG*dA*dG*dG*dG*d[5mC]*kT*k[5mC]*k[5mC]; antisense) [compound 798828] | 18% | – | –
41 | 798829 (kG*kA*kT*dA*dT*d[5mC]*d[5mC]*dA*dG*dA*dG*dA*dG*kG*kG*k[5mC]; antisense) [compound 798829] | 0% | – | –
42 | 798830 (kG*kA*kA*dG*dA*dT*dA*dT*d[5mC]*d[5mC]*dA*dG*dA*kG*kA*kG; antisense) [compound 798830] | 17% | – | –
43 | 798831 (kA*kT*kA*dG*dA*dA*dG*dA*dT*dA*dT*d[5mC]*d[5mC]*kA*kG*kA; antisense) [compound 798831] | 0% | – | –
44 | 798832 (kA*kT*k[5mC]*dA*dT*dA*dG*dA*dA*dG*dA*dT*dA*kT*k[5mC]*k[5mC]; antisense) [compound 798832] | 41% | – | –
45 | 798833 (kT*kA*kG*dA*dT*d[5mC]*dA*dT*dA*dG*dA*dA*dG*kA*kT*kA; antisense) [compound 798833] | 48% | – | –
46 | 798834 (kA*kA*kA*dA*dG*d[5mC]*d[5mC]*dA*dT*dT*d[5mC]*d[5mC]*d[5mC]*k[5mC]*kT*kG; antisense) [compound 798834] | 55% | – | –
47 | 798835 (k[5mC]*kG*kA*dG*dG*d[5mC]*dA*dA*dA*dA*dG*d[5mC]*d[5mC]*kA*kT*kT; antisense) [compound 798835] | – | – | % Inhibition [3]: 22%
48 | 798836 (kG*kT*k[5mC]*d[5mC]*dG*dA*dG*dG*d[5mC]*dA*dA*dA*dA*kG*k[5mC]*k[5mC]; antisense) [compound 798836] | – | – | % Inhibition [3]: 56%
49 | 798837 (kG*k[5mC]*kT*dG*dT*d[5mC]*d[5mC]*dG*dA*dG*dG*d[5mC]*dA*kA*kA*kA; antisense) [compound 798837] | – | – | % Inhibition [3]: 33%
50 | 798838 (k[5mC]*k[5mC]*kG*dA*dA*dT*dT*dG*dA*dG*d[5mC]*dT*dG*kT*k[5mC]*k[5mC]; antisense) [compound 798838] | – | – | % Inhibition [3]: 58%
51 | 798839 (kG*kT*kT*dG*dT*d[5mC]*d[5mC]*dG*dA*dA*dT*dT*dG*kA*kG*k[5mC]; antisense) [compound 798839] | – | – | % Inhibition [3]: 47%
